Experiments:
Experiment in all cases: relative viability (nuclei count vs DMSO), 5 days (fraction); higher = more cells survive
NCI-H520 = tested on: NCI-H520
Summary of the method: (§1)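 Dosing by pin tool came one day after lung cancer cell lines were seeded in 1536-well plates, using either one drug or a fixed anchor-drug dose plus five library-drug doses (not always all listed) in √10 steps. After 5 days, nuclei were counted on 4× images. Relative viability is treated-well nuclei count divided by vehicle-well nuclei count, and values are medians of duplicate plates.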

NCI-H441 = tested on: NCI-H441
Summary of the method: as §1

H3255 = tested on: H3255
Summary of the method: as §1

ChaGo-K-1 = tested on: ChaGo-K-1
Summary of the method: as §1

RERF-LC-KJ = tested on: RERF-LC-KJ
Summary of the method: as §1

NCI-H2087 = tested on: NCI-H2087
Summary of the method: as §1

NCI-H1355 = tested on: NCI-H1355
Summary of the method: as §1

LC-2-ad = tested on: LC-2-ad
Summary of the method: as §1

NCI-H23 = tested on: NCI-H23
Summary of the method: as §1

NCI-H1651 = tested on: NCI-H1651
Summary of the method: as §1

LCLC-103H = tested on: LCLC-103H
Summary of the method: as §1

COR-L 105 = tested on: COR-L 105
Summary of the method: as §1

NCI-H2126 = tested on: NCI-H2126
Summary of the method: as §1

NCI-H322M = tested on: NCI-H322M
Summary of the method: as §1

NCI-H647 = tested on: NCI-H647
Summary of the method: as §1

NCI-H2085 = tested on: NCI-H2085
Summary of the method: as §1

COR-L23 = tested on: COR-L23
Summary of the method: as §1

NCI-H1993 = tested on: NCI-H1993
Summary of the method: as §1

201T = tested on: 201T
Summary of the method: as §1

HOP-62 = tested on: HOP-62
Summary of the method: as §1

NCI-H2342 = tested on: NCI-H2342
Summary of the method: as §1

SK-MES-1 = tested on: SK-MES-1
Summary of the method: as §1

A-427 = tested on: A-427
Summary of the method: as §1

HCC-44 = tested on: HCC-44
Summary of the method: as §1

NCI-H1915 = tested on: NCI-H1915
Summary of the method: as §1

**Q.** With Nc1cccc2c1CN(C1CCC(=O)NC1=O)C2=O (stereo unspecified) [Lenalidomide] + Cc1cc(Nc2cc(N3CCN(C)CC3)nc(Sc3ccc(NC(=O)C4CC4)cc3)n2)n[nH]1 [Tozasertib] (partner 0.1 µM) as the molecule, how does the relative viability (NCI-H520; first compound 0.253 µM) read?
**A.** 0.429

**Q.** What about the relative viability (NCI-H520; first compound 0.8 µM) of the same molecule?
**A.** 0.461

**Q.** And the relative viability (NCI-H520; first compound 2.53 µM)?
**A.** 0.468

**Q.** And the relative viability (NCI-H520; first compound 8 µM)?
**A.** 0.374

**Q.** And the relative viability (NCI-H441; first compound 0.253 µM)?
**A.** 0.72

**Q.** What about the relative viability (NCI-H441; first compound 0.8 µM) of the same molecule?
**A.** 0.572

**Q.** And the relative viability (NCI-H441; first compound 2.53 µM)?
**A.** 0.621

**Q.** What about the relative viability (NCI-H441; first compound 8 µM) of the same molecule?
**A.** 0.522

**Q.** And the relative viability (H3255; first compound 0.253 µM)?
**A.** 0.602

**Q.** What about the relative viability (H3255; first compound 0.8 µM) of the same molecule?
**A.** 0.79

**Q.** What about the relative viability (H3255; first compound 2.53 µM) of the same molecule?
**A.** 0.662

**Q.** And the relative viability (H3255; first compound 8 µM)?
**A.** 0.536

**Q.** What about the relative viability (ChaGo-K-1; first compound 0.253 µM) of the same molecule?
**A.** 0.242

**Q.** And the relative viability (ChaGo-K-1; first compound 0.8 µM)?
**A.** 0.228

**Q.** What about the relative viability (ChaGo-K-1; first compound 2.53 µM) of the same molecule?
**A.** 0.249

**Q.** And the relative viability (ChaGo-K-1; first compound 8 µM)?
**A.** 0.231

**Q.** And the relative viability (RERF-LC-KJ; first compound 0.253 µM)?
**A.** 0.507

**Q.** And the relative viability (RERF-LC-KJ; first compound 0.8 µM)?
**A.** 0.566

**Q.** What about the relative viability (RERF-LC-KJ; first compound 2.53 µM) of the same molecule?
**A.** 0.515

**Q.** What about the relative viability (RERF-LC-KJ; first compound 8 µM) of the same molecule?
**A.** 0.568

**Q.** What about the relative viability (NCI-H2087; first compound 0.253 µM) of the same molecule?
**A.** 0.24

**Q.** And the relative viability (NCI-H2087; first compound 0.8 µM)?
**A.** 0.226

**Q.** And the relative viability (NCI-H2087; first compound 2.53 µM)?
**A.** 0.277

**Q.** What about the relative viability (NCI-H2087; first compound 8 µM) of the same molecule?
**A.** 0.242

**Q.** And the relative viability (NCI-H1355; first compound 0.253 µM)?
**A.** 0.578

**Q.** And the relative viability (NCI-H1355; first compound 2.53 µM)?
**A.** 0.559

**Q.** And the relative viability (NCI-H1355; first compound 8 µM)?
**A.** 0.59

**Q.** And the relative viability (LC-2-ad; first compound 0.253 µM)?
**A.** 0.538

**Q.** What about the relative viability (LC-2-ad; first compound 2.53 µM) of the same molecule?
**A.** 0.469

**Q.** What about the relative viability (LC-2-ad; first compound 8 µM) of the same molecule?
**A.** 0.469

**Q.** And the relative viability (NCI-H23; first compound 0.253 µM)?
**A.** 0.438

**Q.** What about the relative viability (NCI-H23; first compound 0.8 µM) of the same molecule?
**A.** 0.343

**Q.** And the relative viability (NCI-H23; first compound 2.53 µM)?
**A.** 0.723

**Q.** What about the relative viability (NCI-H23; first compound 8 µM) of the same molecule?
**A.** 0.405

**Q.** What about the relative viability (NCI-H1651; first compound 0.253 µM) of the same molecule?
**A.** 0.749

**Q.** And the relative viability (NCI-H1651; first compound 0.8 µM)?
**A.** 0.772

**Q.** What about the relative viability (NCI-H1651; first compound 2.53 µM) of the same molecule?
**A.** 0.819

**Q.** And the relative viability (NCI-H1651; first compound 8 µM)?
**A.** 0.815

**Q.** And the relative viability (LCLC-103H; first compound 0.253 µM)?
**A.** 0.47

**Q.** And the relative viability (LCLC-103H; first compound 0.8 µM)?
**A.** 0.517

**Q.** And the relative viability (LCLC-103H; first compound 2.53 µM)?
**A.** 0.644

**Q.** And the relative viability (LCLC-103H; first compound 8 µM)?
**A.** 0.566

**Q.** And the relative viability (COR-L 105; first compound 0.253 µM)?
**A.** 0.351

**Q.** What about the relative viability (COR-L 105; first compound 0.8 µM) of the same molecule?
**A.** 0.31

**Q.** What about the relative viability (COR-L 105; first compound 2.53 µM) of the same molecule?
**A.** 0.402

**Q.** What about the relative viability (COR-L 105; first compound 8 µM) of the same molecule?
**A.** 0.373

**Q.** What about the relative viability (NCI-H2126; first compound 0.253 µM) of the same molecule?
**A.** 0.873

**Q.** What about the relative viability (NCI-H2126; first compound 0.8 µM) of the same molecule?
**A.** 0.817

**Q.** And the relative viability (NCI-H2126; first compound 2.53 µM)?
**A.** 0.82

**Q.** What about the relative viability (NCI-H2126; first compound 8 µM) of the same molecule?
**A.** 0.737

**Q.** What about the relative viability (NCI-H322M; first compound 0.253 µM) of the same molecule?
**A.** 0.471

**Q.** What about the relative viability (NCI-H322M; first compound 0.8 µM) of the same molecule?
**A.** 0.566

**Q.** And the relative viability (NCI-H322M; first compound 2.53 µM)?
**A.** 0.49

**Q.** And the relative viability (NCI-H322M; first compound 8 µM)?
**A.** 0.439

**Q.** What about the relative viability (NCI-H647; first compound 0.253 µM) of the same molecule?
**A.** 0.339

**Q.** What about the relative viability (NCI-H647; first compound 0.8 µM) of the same molecule?
**A.** 0.27

**Q.** And the relative viability (NCI-H647; first compound 2.53 µM)?
**A.** 0.26

**Q.** And the relative viability (NCI-H647; first compound 8 µM)?
**A.** 0.355

**Q.** What about the relative viability (NCI-H2085; first compound 0.253 µM) of the same molecule?
**A.** 0.819

**Q.** And the relative viability (NCI-H2085; first compound 0.8 µM)?
**A.** 0.886

**Q.** What about the relative viability (NCI-H2085; first compound 2.53 µM) of the same molecule?
**A.** 0.938

**Q.** What about the relative viability (NCI-H2085; first compound 8 µM) of the same molecule?
**A.** 0.878

**Q.** What about the relative viability (COR-L23; first compound 0.253 µM) of the same molecule?
**A.** 0.255

**Q.** And the relative viability (COR-L23; first compound 0.8 µM)?
**A.** 0.238

**Q.** What about the relative viability (COR-L23; first compound 2.53 µM) of the same molecule?
**A.** 0.229

**Q.** What about the relative viability (COR-L23; first compound 8 µM) of the same molecule?
**A.** 0.29

**Q.** And the relative viability (NCI-H1993; first compound 0.253 µM)?
**A.** 0.529

**Q.** What about the relative viability (NCI-H1993; first compound 0.8 µM) of the same molecule?
**A.** 0.572

**Q.** What about the relative viability (NCI-H1993; first compound 2.53 µM) of the same molecule?
**A.** 0.618

**Q.** What about the relative viability (NCI-H1993; first compound 8 µM) of the same molecule?
**A.** 0.524

**Q.** And the relative viability (201T; first compound 0.253 µM)?
**A.** 1.01

**Q.** And the relative viability (201T; first compound 2.53 µM)?
**A.** 1.02

**Q.** And the relative viability (201T; first compound 8 µM)?
**A.** 1.02

**Q.** What about the relative viability (HOP-62; first compound 0.253 µM) of the same molecule?
**A.** 0.359

**Q.** What about the relative viability (HOP-62; first compound 0.8 µM) of the same molecule?
**A.** 0.41

**Q.** And the relative viability (HOP-62; first compound 2.53 µM)?
**A.** 0.352

**Q.** And the relative viability (HOP-62; first compound 8 µM)?
**A.** 0.405

**Q.** And the relative viability (NCI-H2342; first compound 0.253 µM)?
**A.** 0.504

**Q.** And the relative viability (NCI-H2342; first compound 0.8 µM)?
**A.** 0.49

**Q.** And the relative viability (NCI-H2342; first compound 2.53 µM)?
**A.** 0.649

**Q.** And the relative viability (NCI-H2342; first compound 8 µM)?
**A.** 0.441

**Q.** And the relative viability (SK-MES-1; first compound 0.253 µM)?
**A.** 0.865

**Q.** What about the relative viability (SK-MES-1; first compound 0.8 µM) of the same molecule?
**A.** 0.802

**Q.** What about the relative viability (SK-MES-1; first compound 2.53 µM) of the same molecule?
**A.** 0.913

**Q.** And the relative viability (SK-MES-1; first compound 8 µM)?
**A.** 0.98

**Q.** And the relative viability (A-427; first compound 0.253 µM)?
**A.** 0.197

**Q.** And the relative viability (A-427; first compound 0.8 µM)?
**A.** 0.222

**Q.** What about the relative viability (A-427; first compound 2.53 µM) of the same molecule?
**A.** 0.22

**Q.** What about the relative viability (A-427; first compound 8 µM) of the same molecule?
**A.** 0.216

**Q.** And the relative viability (HCC-44; first compound 0.253 µM)?
**A.** 0.886

**Q.** What about the relative viability (HCC-44; first compound 2.53 µM) of the same molecule?
**A.** 1.22

**Q.** What about the relative viability (HCC-44; first compound 8 µM) of the same molecule?
**A.** 1.12

**Q.** And the relative viability (NCI-H1915; first compound 0.253 µM)?
**A.** 0.45

**Q.** What about the relative viability (NCI-H1915; first compound 0.8 µM) of the same molecule?
**A.** 0.471

**Q.** And the relative viability (NCI-H1915; first compound 2.53 µM)?
**A.** 0.437

**Q.** What about the relative viability (NCI-H1915; first compound 8 µM) of the same molecule?
**A.** 0.527

Reference: the supplement of paper PMC10307832
